From patent US20090137580A1, “Fused Heterocyclic Derivatives and Use Thereof” (Takeda Pharmaceutical Company Limited, priority 2005, published 2009)

What was measured:
[1] = molecular target: T1, VEGF Receptor 2 Kinase (VEGFR2) (Homo sapiens, UniProt P35968); assay: Determination of VEGF receptor 2 kinase (VEGFR2) inhibitory activity (alpha screen); assay type: biochemical; details: VEGFR2 intracellular domain protein, 25 μM ATP buffer, read-out: inhibitory rate (kinase inhibitory rate of VEGFR2)
T1 construct: made in house; host or cells: SF-21 insect cells, recombinant baculovirus BAC-VEGFR2 (pFASTBAC1)
T1 sequence (P35968 786-1356 limits assumed): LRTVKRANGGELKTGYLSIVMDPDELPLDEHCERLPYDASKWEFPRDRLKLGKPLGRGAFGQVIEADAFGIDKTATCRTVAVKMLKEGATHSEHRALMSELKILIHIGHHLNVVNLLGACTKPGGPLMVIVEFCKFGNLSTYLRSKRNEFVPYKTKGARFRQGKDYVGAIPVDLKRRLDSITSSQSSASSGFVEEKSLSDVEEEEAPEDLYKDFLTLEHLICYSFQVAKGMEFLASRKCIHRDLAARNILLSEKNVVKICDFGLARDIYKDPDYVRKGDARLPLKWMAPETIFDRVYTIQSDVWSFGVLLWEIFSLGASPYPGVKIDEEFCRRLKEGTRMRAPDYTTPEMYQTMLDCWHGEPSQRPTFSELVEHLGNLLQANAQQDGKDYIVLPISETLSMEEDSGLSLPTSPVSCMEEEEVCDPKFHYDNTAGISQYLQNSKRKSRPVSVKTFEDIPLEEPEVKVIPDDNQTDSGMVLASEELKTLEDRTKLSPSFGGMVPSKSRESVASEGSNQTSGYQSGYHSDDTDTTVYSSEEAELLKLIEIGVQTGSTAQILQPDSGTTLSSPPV
Procedure: For cloning of human VEGF receptor 2 (hereinafter to be abbreviated as VEGFR2) gene, PCR was performed using cDNA Libraries Human Placenta (Clontech) as a template. The primer used for PCR was prepared by, based on the information of the base sequence (Genbank Accession AF035121) of VEGFR2 gene, adding a base sequence encoding the flag peptide and a restriction enzyme recognition sequence to the base sequence (2671-4374 of Genbank Accession AF035121) encoding the VEGFR2 intracellular domain, so that a flag tag would be added to the N terminal of the protein. The primer base sequence is shown in the following.
PCR reaction was carried out using a KOD-plus kit (TOYOBO). The obtained PCR product was electrophoresed on an agarose gel (1%), and a DNA fragment amplified by PCR was recovered from the gel and digested with restriction enzymes Sal I and Sph I. The DNA after the restriction enzyme treatment was electrophoresed on an agarose gel (1%), and the obtained DNA fragment was recovered and ligated to the plasmid pFASTBAC1 (Invitrogen) digested with restriction enzymes Sal I and Sph I to give an expression plasmid pFB-VEGFR2. The base sequence of the inserted fragment was confirmed to have matched with the base sequence (2671-4374 of Genbank Accession AF035121) of the VEGFR2 intracellular domain. Furthermore, virus stock BAC-VEGFR2 of the recombinant Baculovirus was prepared using BAC-TO-BAC Baculovirus Expression System (Invitrogen).
SF-21 cells were inoculated into 1 L of Sf-900IISFM medium (Invitrogen) containing 10% fetal calf serum (trace), 50 mg/L Gentamicin (Invitrogen) and 0.1% Pluronic F-68 (Invitrogen) at 1×10^6 cells/ml, and shake culture was performed using a 2 L Erlenmeyer flask at 27° C., 100 rpm. After 24 hr of culture, recombinant Baculovirus BAC-VEGFR2 (13.4 mL) was added, and the culture was continued for 3 days. The culture medium was centrifuged at 2,000 rpm for 5 min to give virus-infected cells. The infected cells were washed with phosphate buffered saline (Invitrogen), centrifuged under the same conditions, and preserved at −80° C. The cryopreserved cells were thawed in ice, suspended in 30 mL of buffer A (Tris buffer, pH 7.4, containing 20% glycerol and 0.15M NaCl (50 mM)) supplemented with Complete Protease Inhibitor (Boehringer), and disrupted three times using a polytron homogenizer (Kinematica) at 20,000 rpm, 30 sec. The disrupt was clarified by centrifugation at 40,000 rpm, 30 min and filtered through a 0.45 μm filter. The filtrate was passed through a column packed with Anti-FLAG M2 Affinity Gel (Sigma Ltd., 4 mL) at a flow rate of about 0.5 mL/min. The column was washed with buffer A and eluted with buffer A containing 100 μg/mL FLAG peptide. The eluate was concentrated by Vivaspin 20 (Viva Science) having a fraction molecular weight of 30K. The concentrate was applied to NAP™ 25 column (Amersham Biosciences) equilibrated with buffer A for buffer exchange. The fractions containing the VEGFR2 intracellular domain protein were collected, glycerol was added to the final concentration of 50% and the fractions cryopreserved at ˜80° C.
The test compound dissolved in dimethyl sulfoxide (DMSO) was diluted with a buffer (50 mM Tris-HCl, pH 7.5, 5 mM MgCl2, 5 mM MnCl2, 2 mM dithiothreitol, 0.01% Tween-20). A buffer (10 μl) containing 50 ng/ml VEGFR2 intracellular domain protein and 250 ng/ml biotin-labeled polypeptide biotinyl-poly-Glu:Tyr (4:1) (CIS Bio International) was added to the compound solution (5 μl). A buffer (10 μl) containing 25 μM ATP was added to the obtained mixture, the mixture was allowed to react at 25° C. for 5 min. Then, 25 μl of a stop solution (100 mM EDTA·2 sodium salt, 62.5 mM HEPES buffer (pH 7.4), 250 mM NaCl, 0.1% bovine serum albumin, 10 μg/ml Streptavidin Donor beads: PerkinElmer for alpha screen assay, 10 μg/ml Anti-phosphotyrosine (P-Tyr-100) Acceptor beads: PerkinElmer for alpha screen assay) was added to quench the reaction. […]

[2] = molecular target: T2, PDGFRbeta Receptor Kinase (PDGFRbeta) (Homo sapiens, UniProt P09619); assay: Determination of PDGFRbeta receptor kinase (PDGFRbeta) inhibitory activity (alpha screen); assay type: biochemical; details: PDGFRbeta intracellular domain protein, 25 μM ATP buffer; read-out: IC50 value (PDGFRbeta kinase inhibition)
T2 construct: PDGFRbeta intracellular domain protein (UPSTATE); purchased UPSTATE
T2 sequence (P09619 554-1106 limits assumed): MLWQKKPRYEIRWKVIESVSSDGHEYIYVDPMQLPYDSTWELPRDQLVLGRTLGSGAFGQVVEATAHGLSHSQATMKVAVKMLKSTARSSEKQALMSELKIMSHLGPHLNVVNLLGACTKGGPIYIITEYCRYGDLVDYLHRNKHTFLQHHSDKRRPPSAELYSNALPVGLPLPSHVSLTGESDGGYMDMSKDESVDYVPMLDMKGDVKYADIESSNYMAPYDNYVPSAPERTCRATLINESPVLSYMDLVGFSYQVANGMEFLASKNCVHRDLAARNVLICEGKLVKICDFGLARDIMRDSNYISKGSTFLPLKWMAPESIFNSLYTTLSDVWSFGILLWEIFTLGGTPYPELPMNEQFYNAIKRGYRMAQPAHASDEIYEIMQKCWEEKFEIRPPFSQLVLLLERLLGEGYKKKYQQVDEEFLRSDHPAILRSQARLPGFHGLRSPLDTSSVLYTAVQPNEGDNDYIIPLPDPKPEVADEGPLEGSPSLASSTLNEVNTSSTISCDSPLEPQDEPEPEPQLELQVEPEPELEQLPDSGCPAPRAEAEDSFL
Procedure: The test compound dissolved in dimethyl sulfoxide (DMSO) was diluted with a buffer (50 mM Tris-HCl, pH 7.5, 5 mM MgCl2, 5 mM MnCl2, 2 mM dithiothreitol, 0.01% Tween-20). A buffer (10 μl) containing 125 ng/ml PDGFRbeta intracellular domain protein (UPSTATE) and 250 ng/ml biotin-labeled polypeptide biotinyl-poly-Glu:Tyr (4:1) (CIS Bio International) was added to the compound solution (5 μl). At 5 min after mixing a kinase enzyme, the compound and a biotin-labeled polypeptide, a buffer (10 μl) containing 25 μM ATP was added to the obtained mixture, the mixture was allowed to react at 25° C. for 30 min. Then, 25 μl of a stop solution (100 mM EDTA·2 sodium salt, 62.5 mM HEPES buffer (pH 7.4), 250 mM NaCl, 0.1% bovine serum albumin, 10 μg/ml Streptavidin Donor beads: PerkinElmer for alpha screen assay, 10 μg/ml Anti-phosphotyrosine (P-Tyr-66) Acceptor beads: PerkinElmer for alpha screen assay) was added to quench the reaction. The reaction solution was stood at 25° C. for 16 hr, and the count was measured using a plate reader·Fusion™ (manufactured by PerkinElmer). The kinase inhibitory rate (%) of the test compound was calculated by the following formula.
Inhibitory rate(%)=(1−(count of test compound−blank)÷(control−blank))×100
wherein the count of the solution reacted without addition of the compound is “control” and the count of the solution without addition of the compound and ATP is “blank”.

inhibition at 1 µM [1]	IC50 [2]	SMILES
≥ 90%	≤ 500 nM	CCn1ccc2ncnc(Oc3ccc(NC(=O)Nc4cccc(C(F)(F)F)c4)c(Cl)c3)c21 [Example 47, N-{2-chloro-4-[(5-ethyl-5H-pyrrolo[3,2-d]pyrimidin-4-yl)oxy]phenyl}-N′-[3-(trifluoromethyl)phenyl]urea]
≥ 90%	≤ 500 nM	Cc1cc(Oc2ncnc3ccn(C)c23)ccc1NC(=O)Nc1cccc(C(F)(F)F)c1 [Example 41, N-{2-methyl-4-[(5-methyl-5H-pyrrolo[3,2-d]pyrimidin-4-yl)oxy]phenyl}-N′-[3-(trifluoromethyl)phenyl]urea]
≥ 90%	≤ 500 nM	Cn1ccc2ncnc(Oc3ccc(NC(=O)Nc4cccc(OC(F)(F)F)c4)c(Cl)c3)c21 [Example 20, N-{2-chloro-4-[(5-methyl-5H-pyrrolo[3,2-d]pyrimidin-4-yl)oxy]phenyl}-N′-[3-(trifluoromethoxy)phenyl]urea]
≥ 90%	≤ 500 nM	Cn1ccc2ncnc(Oc3ccc(NC(=O)Nc4cccc(C(F)(F)F)c4)c(Cl)c3)c21 [Example 15, N-{2-chloro-4-[(5-methyl-5H-pyrrolo[3,2-d]pyrimidin-4-yl)oxy]phenyl}-N′-[3-(trifluoromethyl)phenyl]urea]
